Source: paper PMC8956739, “A synthetic lipopeptide targeting top-priority multidrug-resistant Gram-negative pathogens” (Nature Communications, 2022)
Residues, ends and D or L forms follow the SMILES beside them.

Tests used:
[1] = Distribution, accumulation and metabolism in mouse kidneys (ME-SALDI-MS imaging, histology); type: in vivo; details: mouse, in vivo
Method: At 2 h after the last dose on Day 2, mice were rapidly euthanized. The left kidney was collected, flash-frozen in liquid nitrogen, and stored at -80 C for MS imaging analysis. The right kidney was fixed in 10% formalin for histological examination (Histopathology and Organ Pathology Unit at the University of Melbourne). The level of histological damage to the kidneys was graded as previously described. […] A total of 1 μL was spotted onto electrochemically etched, porous-silicon semiconductor substrates for desorption/ionization on silicon (DIOS)[39]. […] For lipopeptide distribution in mouse kidneys, serially sectioned 8-μm frozen slices of the kidney were loaded onto DIOS substrates and coated with a thin layer of α-CHCA using a matrix sprayer (TM-Sprayer, HTX) for MSI analysis. […] Mounted tissue was scanned for imaging alignment (Epson Perfection […]) and calibrated as previously described. Resulting polymyxin maps were visualized and normalized against the total ion current (TIC) of each section using IonView software (Shimadzu). Lipopeptide accumulation in mouse kidneys was determined by simultaneous […] analysis of kidney tissue from treated animals and serial dilutions of the drug deposited on control kidney tissue. […] The signal intensities were compared to the corresponding concentration standard curve to calculate the concentration of lipopeptide present. Putative metabolites in the kidneys treated with lipopeptides were identified by […]. Control kidney sections were used to differentiate lipopeptide metabolites from endogenous metabolites and MS/MS data from lipopeptide standards were used to differentiate lipopeptide metabolites from the parent ion generated via CID processed in the acquisition software (MALDI Solutions, Shimadzu). Levels of accumulated lipopeptide metabolites were determined by normalization to the parent ion in MSI data.

cynomolgus monkeys = assay: 14-day repeat-dose GLP toxicology study; details: cynomolgus monkey, in vivo
Method: (§1) A 14-day repeat-dose GLP toxicology study of F365 was conducted in Cynomolgus monkeys. The study complied with the OECD Principles of Good Laboratory Practice. […] Cynomolgus monkeys were approximately 2–4 years of age and weighed between 2.0 and 2.9 kg at the start of treatment. Four male and four female cynomolgus monkeys were used for each dose group. F365 (in 0.9% sodium chloride for injection) was administered four times daily (i.e. 6 h ± 15 min apart) as 60-min intravenous infusion at 5, 20, and 50 mg/kg/day for 14 consecutive days; the reference item (vehicle control) was also administered. Assessments of mortality checks, clinical observations, body weight, ophthalmology, and electrocardiography were conducted. Blood and urine samples were collected pre-treatment and at the end of the dosing period for hematology, clinical chemistry, coagulation, and urinalysis assessments. Other blood samples were collected after the first and last dose for toxicokinetic assessment. Following the end of the 14-day dosing period, animals were euthanized on Day 16 and examined macroscopically. Organ weights and macroscopic observations were recorded at necropsy for all groups. Histopathological examinations were performed on the specified tissues and organ list for animals across all groups.

[2] = 14-day repeat-dose GLP toxicology study; details: cynomolgus monkey, in vivo
Method: as §1

A. baumannii FADDI-AB30 = assay: Neutropenic mouse thigh infection model; type: in vivo; details: for diff of mean Log10 CFU/lung, Pre-treament minus treatment / diff of mean Log10 CFU/lung, Vehicle minus treatment / Log10 CFU/lung, Thigh 1 / Log10 CFU/lung, Thigh 2 / Log10 CFU/lung, Thigh 3 / Log10 CFU/lung, Thigh 4: 45mg/kg/d; for Log10 CFU/lung, Thigh 1 / Log10 CFU/lung, Thigh 2 / Log10 CFU/lung, Thigh 3 / Log10 CFU/lung, Thigh 4: neutropenic mouse thigh infection; for Log10 CFU/lung, Thigh 1: Thigh 1 (Supp Fig. 4); for Log10 CFU/lung, Thigh 2: Thigh 2 (Supp Fig. 4); for Log10 CFU/lung, Thigh 3: Thigh 3 (Supp Fig. 4); for Log10 CFU/lung, Thigh 4: Thigh 4 (Supp Fig. 4)
Method: The experimental methodology for the neutropenic mouse thigh infection model was previously described in detail. Briefly, Swiss mice (female, 7-week-old, 22–28 g) were rendered neutropenic by intraperitoneal administration of cyclophosphamide 4 days (150 mg/kg) and 1 day (100 mg/kg) prior to inoculation. Thigh infection was established by the administration of a 50 µL bolus of early log-phase bacterial suspension (4 × 10^8 CFU/mL) directly into each thigh of two mice in each group (n = 4 thighs); this method is well accepted in antibiotic pharmacokinetic/ pharmacodynamic studies to minimize animal usage. Lipopeptide solutions were prepared in sterile saline. At 2 h after inoculation, mice were administered a lipopeptide or control solution via an intraperitoneal bolus injection at 15 mg/kg, three doses every 8 h. At 0 and 24 h after the administration, animals were euthanized and each thigh was collected and homogenized under sterile conditions. Homogenate was filtered and the filtrate was collected, serially diluted in sterile saline, and spread on nutrient agar plates. Agar plates were incubated at 37 °C overnight for bacterial colony counting and the bacterial load of both thighs (log10 CFU/thigh) in each mouse was calculated. In vivo efficacy was calculated as the difference of the log10 CFU/thigh values between the treated mice at 24 h and the pre-treatment (control) at 0 h (Δlog10 CFU/thigh = log10 [treated] CFU/thigh − log10 [pre-treatment] CFU/thigh).

[3] = system: female cynomolgus monkeys; parameters: method as in earlier work; details: 3.8 mg/kg/12 h (7.6 mg/kg/day) for 7 days ref 27; cited from earlier work

## CC[C@@H]1NC(=O)[C@@H](CC(C)C)NC(=O)[C@H](CCN)NC(=O)[C@@H](NC(=O)[C@H](CN)NC(=O)[C@@H](NC(=O)[C@H](CCN)NC(=O)c2ccc(Cl)cc2Cl)[C@@H](C)O)CCNC(=O)[C@H]([C@@H](C)O)NC(=O)[C@H](CCN)NC(=O)[C@H](CCN)NC1=O [Lipopeptide F365] (HELM PEPTIDE1{[O=C(c1ccc(Cl)cc1Cl)[*:2]].[Dab].T.[NC[C@H](N[*:1])C(=O)[*:2]].[Dab].[Dab].[dL].[Abu].[Dab].[Dab].T}$PEPTIDE1,PEPTIDE1,5:R3-11:R2$$$V2.0)
[1]; female, Swiss, 10 umol/kg, 10 μmol/kg SC, 6 doses Day 1 and 3 doses Day 2, 2 h after last dose, read-out: Concentration in the kidney cortex region
  level at time molar: 20.8 µM
[1]
  M1 metabolite in kidneys: no M1 metabolite detected
  major metabolite in kidneys: M3
Cynomolgus monkeys
  estimated dose that can be safely administered to patients: at least 6.5 mg/kg/day
Cynomolgus monkeys; 5 mg/kg
  Kidney histopathology: 8/8 no changes
[2]
  NOAEL: ≥ 20 mg/kg/day
[2]; 5 mg/kg, Plasma AUC0-24 Day 1
  AUC(0-t): 24 µg·h/mL
[2]; 5 mg/kg, Plasma AUC0-24 Day 14
  AUC(0-t): 26.4 µg·h/mL
[2]; 20 mg/kg, Plasma AUC0-24 Day 1
  AUC(0-t): 97.2 µg·h/mL
[2]; 20 mg/kg, Plasma AUC0-24 Day 14
  AUC(0-t): 110 µg·h/mL
[2]; 50 mg/kg, Plasma AUC0-24 Day 1
  AUC(0-t): 246 µg·h/mL
[2]; 50 mg/kg, Plasma AUC0-24 Day 14
  AUC(0-t): 378 µg·h/mL
A. baumannii FADDI-AB30; 45 mg/kg/d IP in 3 divided doses every 8 h, 24 h
  reduction in CFU/thigh beyond polymyxin B: > 2.0 log10 CFU/thigh
A. baumannii FADDI-AB30; one way ANOVA comparison
  diff of mean Log10 CFU/lung, Pre-treament minus treatment: 5.655 log10 CFU/thigh
  diff of mean Log10 CFU/lung, Vehicle minus treatment: 5.9625 log10 CFU/thigh
A. baumannii FADDI-AB30; both 45mg/kg/d, one way ANOVA comparison, Polymyxin B - F365
  diff of mean Log10 CFU/lung, Polymyxin B minus F365: 2.515 log10 CFU/thigh
A. baumannii FADDI-AB30
  Log10 CFU/lung, Thigh 1: 2.83 log10 CFU/thigh
  Log10 CFU/lung, Thigh 2: 0 log10 CFU/thigh
  Log10 CFU/lung, Thigh 3: 3.13 log10 CFU/thigh
  Log10 CFU/lung, Thigh 4: 0 log10 CFU/thigh

## Polymyxin B [reference compound]
[3]
  kidney findings: increased histological damage in all test animals
A. baumannii FADDI-AB30; one way ANOVA comparison
  diff of mean Log10 CFU/lung, Pre-treament minus treatment: 3.14 log10 CFU/thigh
  diff of mean Log10 CFU/lung, Vehicle minus treatment: 3.4475 log10 CFU/thigh
A. baumannii FADDI-AB30
  Log10 CFU/lung, Thigh 1: 5.16 log10 CFU/thigh
  Log10 CFU/lung, Thigh 2: 5.25 log10 CFU/thigh
  Log10 CFU/lung, Thigh 3: 3.38 log10 CFU/thigh
  Log10 CFU/lung, Thigh 4: 2.23 log10 CFU/thigh
